Patent publication US20230295164A1, “COMPOUNDS HAVING ANTIBACTERIAL ACTIVITY” (The Trustees of Princeton University, priority 2020, published 2023)
In brackets after ≈: the same amount, converted by molar mass.

Tests used:
Experiment in all cases: MIC testing, broth microdilution in CAMHB
Assay type in all cases: cell-based
[1] = test system: Enterococcus faecalis, ATCC 51575; details: 18-20 hr, lowest concentration that completely inhibits visible growth; for MIC: Enterococcus faecalis, ATCC51575, 37° C., read-out: Compound MICs, Enterococcus faecalis, ATCC 51575; for Compound MICs, Enterococcus faecalis, ATCC 51575: 37° C.
Protocol: (§1) Compounds 1-71 were subsequently tested to determine MICs of the compounds relative to the following five species/strains of bacteria: Staphylococcus aureus, NRS384; Enterococcus faecalis, ATCC 51575; Salmonella typhimurium, CMCC 50115; Escherichia coli, ATCC BAA-198; and Acinetobacter baumannii, ATCC 17978. MIC testing of compounds was conducted according to the following protocol.
(§2) For each strain to be tested, made fresh streaks onto CAMHA from −80° C. glycerol stocks.
(§3) • CAMHB: Dissolved 22 g of the powder per 1 L of purified water. Mixed well. Autoclaved at 121° C. for 10 minutes. Stored at room temperature (RT) for no more than 1 week. • Saline: Dissolved 9 g of the powder per 1 L of purified water. Mixed well. Autoclaved at 121° C. for 30 minutes. Stored at room temperature (RT) for no more than 1 week.
(§4) Prepared the stock solutions of the tested compounds.
(§5) For compounds: • a) Dispensed 20 ul compound to the wells in column 1, and 20 ul DMSO to the wells in column 2 to 12; • b) Diluted the compounds by transferring 10 ul compounds from column 1 to 20 ul DMSO in column 2; mix with pipette. • c) Repeated until column 11 to get 3×serial dilutions. Column 12 was the DMSO control.
(§6) A multichannel pipette was used to deliver 1 μl of the diluted compound into each well of the corresponding daughter plate.
(§7) Scraped 4-8 single colonies from an agar plate into 5 ml saline in a 14 ml Falcon conical tube. Vortexed the tube to suspend the bacteria. Adjusted the turbidity to ˜0.2 (corresponding to 0.5 McFarland) with an Ultrospec 10 Cell density meter.
(§8) The strain suspension was diluted 200-fold in CAMHB medium and dispense into a sterile reservoir. A multichannel pipette was then used to deliver 99 μl of the diluted inocula into each well of the corresponding daughter plate.
(§9) Incubate the daughter plates at 37° C., 85% humidity for 18-20 hr.
(§10) A magnifying mirror device was used for ease of scoring the presence or absence of growth in the wells. 96-well micro-plates were photographed.

[2] = test system: Acinetobacter baumannii, ATCC 17978; details: 18-20 hr, lowest concentration that completely inhibits visible growth; for MIC: Acinetobacter baumannii, ATCC17978, 37° C., read-out: Compound MICs, Acinetobacter baumannii, ATCC 17978; for Compound MICs, Acinetobacter baumannii, ATCC 17978: 37° C.
Protocol: as §1, §2, §3, §4, §5, §6, §7, §8, §9, §10

[3] = test system: Salmonella typhimurium, CMCC 50115; details: 37° C., 18-20 hr, lowest concentration that completely inhibits visible growth; for MIC: Salmonella enterica, read-out: Compound MICs, Salmonella typhimurium, CMCC 50115
Protocol: as §1, §2, §3, §4, §5, §6, §7, §8, §9, §10

[4] = test system: Escherichia coli, ATCC BAA-198; details: 18-20 hr, lowest concentration that completely inhibits visible growth; for MIC: Escherichia coli, ATCCBAA198, 37° C., read-out: Compound MICs, Escherichia coli, ATCC BAA-198; for Compound MICs, Escherichia coli, ATCC BAA-198: 37° C.
Protocol: as §1, §2, §3, §4, §5, §6, §7, §8, §9, §10

[5] = test system: Staphylococcus aureus, NRS384; details: 18-20 hr, lowest concentration that completely inhibits visible growth; for MIC: Staphylococcus aureus, NRS384, 37° C., read-out: Compound MICs, Staphylococcus aureus, NRS384; for Compound MICs, Staphylococcus aureus, NRS384: 37° C.
Protocol: as §1, §2, §3, §4, §5, §6, §7, §8, §9, §10

MIC [1] [µg/mL]	MIC [2] [µg/mL]	MIC [3] [µg/mL]	MIC [4] [µg/mL]	MIC [5] [µg/mL]	Compound MICs, Enterococcus faecalis, ATCC 51575 [1] [µg/mL]	Compound MICs, Acinetobacter baumannii, ATCC 17978 [2] [µg/mL]	Compound MICs, Salmonella typhimurium, CMCC 50115 [3] [µg/mL]	Compound MICs, Escherichia coli, ATCC BAA-198 [4] [µg/mL]	Compound MICs, Staphylococcus aureus, NRS384 [5] [µg/mL]	SMILES
0.01 (≈ 0.0319 µM)	2.37 (≈ 7.56 µM)	0.088 (≈ 0.281 µM)	2.37 (≈ 7.56 µM)	0.088 (≈ 0.281 µM)	–	–	–	–	–	C#Cc1ccc(Cn2ccc3c4c(N)nc(N)nc4ccc32)cc1 [Compound 1]
2.37 (≈ 5.79 µM)	7.11 (≈ 17.4 µM)	> 64	64 (≈ 156 µM)	2.37 (≈ 5.79 µM)	–	–	–	–	–	Nc1nc(NCCO)c2c(ccc3c2ccn3Cc2ccc(-c3ccccc3)cc2)n1 [Compound 2]
0.03 (≈ 0.0957 µM)	7.11 (≈ 22.7 µM)	0.79 (≈ 2.52 µM)	7.11 (≈ 22.7 µM)	0.26 (≈ 0.83 µM)	–	–	–	–	–	Nc1nc(N)c2c(ccc3c2ccn3CC#Cc2ccccc2)n1 [Compound 3]
0.03 (≈ 0.0951 µM)	7.11 (≈ 22.5 µM)	0.79 (≈ 2.5 µM)	7.11 (≈ 22.5 µM)	0.03 (≈ 0.0951 µM)	–	–	–	–	–	Nc1nc(N)c2c(ccc3c2ccn3C/C=C/c2ccccc2)n1 [Compound 4]
0.03 (≈ 0.0786 µM)	7.11 (≈ 18.6 µM)	0.79 (≈ 2.07 µM)	7.11 (≈ 18.6 µM)	0.26 (≈ 0.682 µM)	–	–	–	–	–	Nc1nc(N)c2c(ccc3c2ccn3Cc2cccc(Oc3ccccc3)c2)n1 [Compound 5]
0.03 (≈ 0.0905 µM)	0.79 (≈ 2.38 µM)	0.26 (≈ 0.784 µM)	2.37 (≈ 7.15 µM)	0.088 (≈ 0.266 µM)	–	–	–	–	–	CC(C)c1ccc(Cn2ccc3c4c(N)nc(N)nc4ccc32)cc1 [Compound 8]
0.26 (≈ 0.736 µM)	21.3 (≈ 60.3 µM)	2.37 (≈ 6.71 µM)	21.3 (≈ 60.3 µM)	0.79 (≈ 2.24 µM)	–	–	–	–	–	C#Cc1ccc(Cn2ccc3c4c(N)nc(NC5CC5)nc4ccc32)cc1 [Compound 9]
0.03 (≈ 0.107 µM)	7.11 (≈ 25.3 µM)	0.79 (≈ 2.81 µM)	21.3 (≈ 75.7 µM)	0.088 (≈ 0.313 µM)	–	–	–	–	–	Nc1nc(N)c2c(ccc3c2ccn3CC2CCCC2)n1 [Compound 11]
0.03 (≈ 0.0976 µM)	2.37 (≈ 7.71 µM)	0.79 (≈ 2.57 µM)	7.11 (≈ 23.1 µM)	0.26 (≈ 0.846 µM)	–	–	–	–	–	Nc1nc(N)c2c(ccc3c2ccn3Cc2cccc(F)c2)n1 [Compound 12]
0.01 (≈ 0.0307 µM)	2.37 (≈ 7.29 µM)	0.088 (≈ 0.271 µM)	7.11 (≈ 21.9 µM)	0.088 (≈ 0.271 µM)	–	–	–	–	–	Nc1nc(N)c2c(ccc3c2ccn3Cc2ccc(F)c(F)c2)n1 [Compound 13]
–	–	–	–	–	0.09	21.3	2.37	7.11	0.26	CC(C)C#Cc1ccc(Cn2ccc3c4c(N)nc(N)nc4ccc32)cc1 [Compound 15]
–	–	–	–	–	0.09	>64	21.3	>64	0.79	CC(C)(C)OC(=O)NCC#Cc1ccc(Cn2ccc3c4c(N)nc(N)nc4ccc32)cc1 [Compound 16]
–	–	–	–	–	0.79	21.3	7.11	21.3	2.37	CC(C)C#Cc1ccc(Cn2ccc3c4c(N)nc(NC5CC5)nc4ccc32)cc1 [Compound 17]
–	–	–	–	–	0.79	21.3	7.11	21.3	2.37	CC#Cc1ccc(Cn2ccc3c4c(N)nc(NC5CC5)nc4ccc32)cc1 [Compound 18]
–	–	–	–	–	0.79	>64	21.3	>64	2.37	Nc1nc(NC2CC2)nc2ccc3c(ccn3Cc3ccc(C#Cc4ccccc4)cc3)c12 [Compound 19]
–	–	–	–	–	0.79	64	21.3	>64	2.37	Nc1nc(NC2CC2)nc2ccc3c(ccn3Cc3ccc(C#CC4CC4)cc3)c12 [Compound 20]
–	–	–	–	–	0.26	>64	>64	>64	2.37	Nc1nc(N)c2c(ccc3c2ccn3Cc2ccc(C#Cc3ccccc3)cc2)n1 [Compound 23]
–	–	–	–	–	0.26	64	0.26	7.11	0.79	NCC#Cc1ccc(Cn2ccc3c4c(N)nc(N)nc4ccc32)cc1 [Compound 24]
–	–	–	–	–	0.09	21.3	0.79	7.11	0.26	CC#Cc1ccc(Cn2ccc3c4c(N)nc(N)nc4ccc32)cc1 [Compound 25]
–	–	–	–	–	0.09	2.37	0.26	2.37	0.09	Nc1nc(N)c2c(ccc3c2ccn3Cc2ccc3ccccc3c2)n1 [Compound 26]
–	–	–	–	–	>64	>64	>64	>64	>64	CC[Si](C#Cc1ccc(CNc2nc(N)nc3ccc4c(ccn4Cc4ccc(C#C[Si](CC)(CC)CC)cc4)c23)cc1)(CC)CC [Compound 27]
–	–	–	–	–	0.09	7.11	0.79	7.11	0.26	CCc1ccc(Cn2ccc3c4c(N)nc(N)nc4ccc32)cc1 [Compound 31]
–	–	–	–	–	0.03	7.11	0.26	2.37	0.26	C=Cc1ccc(Cn2ccc3c4c(N)nc(N)nc4ccc32)cc1 [Compound 33]
–	–	–	–	–	0.09	21.3	0.26	7.11	0.26	Nc1nc(N)c2c(ccc3c2ccn3Cc2ccc([N+](=O)[O-])cc2)n1 [Compound 34]
–	–	–	–	–	0.09	21.3	2.37	7.11	0.79	Nc1nc(N)c2c(ccc3c2ccn3CCc2ccc(F)cc2)n1 [Compound 39]
–	–	–	–	–	0.09	21.3	0.79	64	2.37	COc1ccc(-c2cc3c(ccn3Cc3ccc(F)cc3)c3c(N)nc(N)nc23)cc1 [Compound 41]
–	–	–	–	–	0.01	7.11	0.79	7.11	0.03	Cc1ccc(Cn2ccc3c4c(N)nc(N)nc4ccc32)c2ccccc12 [Compound 42]
